According to patent publication US20070031511A1, “Method of treatment” (priority 2003, published 2007):
“Also recorded” adds a separate entry of the source.

Experiments:
IMGE-5 cells [1] = assay: IMGE-5 cell proliferation, MTT assay; format: cell-based, mice; conditions: for Mean Response ± SEM (% Control), proliferation of IMGE cells: treatment alone: 10 nM Ggly, 32 mol/mol Bi without Ggly, fetal calf serum positive control
IMGE-5 cells [2] = assay: Wound healing / cell migration assay; format: cell-based, mice; conditions: for Stimulation of IMGE-5 cell migration: wound healing assay, fragments and mutants shown at 1 nM (FIGS. 7B, 8B)
Outline: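 Murine gastric IMGE-5 cells at 80% confluence were shifted to 39 °C (non-permissive), serum-starved 24 h, then scratch-wounded. They were treated with or without compound in serum-free DMEM. Wound width was measured at six positions after 24 h and averaged.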

CCK-2 receptor = molecular target: T1, CCK-2 receptor (Homo sapiens, UniProt P32239); assay: [125I]-BH-CCK8 displacement, CCK-2 receptor on transiently transfected COS-7 cells; format: binding; design: COS-7 cells transiently transfected with CCK-2 receptor cDNA; expressed in transfected cells; host or cells: COS-7
T1 sequence (P32239 1-447): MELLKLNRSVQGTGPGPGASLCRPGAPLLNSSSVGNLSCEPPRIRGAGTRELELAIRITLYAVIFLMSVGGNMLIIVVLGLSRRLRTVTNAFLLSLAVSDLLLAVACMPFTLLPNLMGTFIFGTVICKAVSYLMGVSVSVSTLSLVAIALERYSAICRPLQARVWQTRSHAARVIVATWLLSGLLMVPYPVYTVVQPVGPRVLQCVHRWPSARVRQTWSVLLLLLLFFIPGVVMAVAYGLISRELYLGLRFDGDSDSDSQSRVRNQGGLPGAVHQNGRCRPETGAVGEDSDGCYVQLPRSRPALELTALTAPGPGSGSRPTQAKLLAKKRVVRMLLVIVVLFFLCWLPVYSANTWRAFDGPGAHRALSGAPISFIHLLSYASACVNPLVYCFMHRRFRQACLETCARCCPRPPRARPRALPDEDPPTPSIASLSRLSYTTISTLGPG
Description: Non-specific binding was evaluated with […] of unlabelled CCK8. Incubation was stopped by adding 2 ml of ice-cold PBS containing 2% bovine serum albumin. After centrifugation, supernatants were removed and the radioactivity bound to the cell membranes was measured in a γ-counter (LKB, Wallac, Finland).
The lines of best fit shown in FIG. 21 were obtained by nonlinear regression to a single site model with the program Sigmaplot.

[3] = tested on: HT29 human colorectal carcinoma cells; assay: Ggly-stimulated inositol phosphate production in HT29 cells; format: cell-based
Description: Intracellular inositol phosphate production was determined as described previously (Qian et al, 1993). IMGE-5 cells (10^5 cells/ml) were plated in 24-multiwell culture plates in DMEM supplemented with 10% FBS, 200 IU/ml penicillin and 200 μg/ml streptomycin. 24 h later, cells were incubated with DMEM supplemented with antibiotics and Myo-[2-^3H]inositol (2.5 μCi/well) and shifted to 39° C. for 16 h. Cells were then washed with pre-warmed DMEM and incubated (20-30 minutes, 37° C.) with DMEM supplemented with 20 mM LiCl. Loaded cells were then washed in 1 ml of IP buffer (135 mM NaCl, 20 mM N-(2-hydroxyethyl)piperazine-N′-(2-ethanesulfonic acid), 2 mM CaCl2, 1.2 mM MgSO4, 1 mM ethylene glycol-bis(2-aminoethylether)-N,N,N′,N′-tetraacetic acid, 10 mM LiCl, and 0.5% bovine serum albumin, pH 7.45) and incubated with or without agonist in a final volume of 0.5 ml of IP buffer. After 1-h incubation at 37° C., the reaction was stopped by removing the incubation medium and adding 1 ml of a mixture of ethanol/HCl (2000:1; v/v). One ml of each aliquot was applied to a column containing 1.6 ml of a 1:2 (v/v) Dowex AG-1-X8 anion exchange resin in distilled water. The columns were washed with 4 ml of distilled water, followed by 4 ml of 40 mM HCOONH4, and inositol phosphates were eluted with 4 ml of 1 M HCOONH4. The radioactivity of each eluate was counted after addition of Complete phase combining system solution (Amersham, UK). For the positive control, IMGE-5 cells were incubated with a combination of 30 mM NaF and 10 μM AlCl3 under the same experimental conditions.
Ggly-stimulated inositol phosphate production was measured in HT29 human colorectal carcinoma cells.

HT29 cells = assay: HT29 cell proliferation, MTT assay; format: cell-based, human

% Maximum Binding (COS-7) (CCK-2 receptor; binding in the absence of competitor, fitted, mean ± S.E.) | % Maximum Binding (COS-7) (CCK-2 receptor; presence and absence of 1 μM DFO) | Predicted ordinate intercept, FIG. 21 (CCK-2 receptor; single experiment) | Ordinate intercept, FIG. 24A (CCK-2 receptor; single experiment, presence and absence of 1 μM DFO) | Effect on binding of CCK8 to the CCK-2 receptor (CCK-2 receptor; 2, 8 or 32 moles/mole, transfected COS-7 cells (FIG. 16)) | Compound | Increase in proliferation of IMGE-5 (IMGE-5 cells [1]) | Stimulation of IMGE-5 cell migration (IMGE-5 cells [2]) | Mean Response ± SEM (% Control), proliferation of IMGE cells (IMGE-5 cells [1]) | Effect on Ggly-induced migration of IMGE-5 cells (IMGE-5 cells [2]; 2, 8 or 32 moles/mole Ggly, 10 nM Ggly, 17 or 24 hours) | Effect of bismuth ions alone on migration (IMGE-5 cells [2]; maximum concentration tested, without Ggly) | Effect on Ggly-induced inositol phosphate production ([3]; 2, 8, and 32 moles Bi3+/mole Ggly, 10 nM Ggly) | Effect of bismuth ions alone on inositol phosphate production ([3]; HT29 cells, highest concentration tested) | Effect on proliferation induced by Ggly (HT29 cells; 2, 8 or 32 moles/mole, 10 nM Ggly, HT29) | Effect of bismuth ions alone on proliferation (HT29 cells; HT29, highest concentrations tested) | Inositol phosphate production compared to the control ([3]; HT29 cells, 10 nM Ggly) | HT29 cell proliferation compared to the control (HT29 cells; 10 nM Ggly, MTT)
94.2 ± 2.4% | 81.1 ± 1.7% | 86.1% | 81.1% |  | CSCC[C@H](NC(=O)[C@H](Cc1c[nH]c2ccccc12)NC(=O)CNC(=O)[C@H](Cc1ccc(O)cc1)NC(=O)[C@H](C)NC(=O)[C@H](CCC(=O)O)NC(=O)[C@H](CCC(=O)O)NC(=O)[C@H](CCC(=O)O)NC(=O)[C@H](CCC(=O)O)NC(=O)[C@H](CCC(=O)O)NC(=O)[C@H](CC(C)C)NC(=O)[C@H](Cc1c[nH]c2ccccc12)NC(=O)[C@@H]1CCCN1C(=O)CNC(=O)[C@@H]1CCC(=O)N1)C(=O)N[C@@H](CC(=O)O)C(=O)N[C@@H](Cc1ccccc1)C(N)=O [Gamide] | 2 fold | did not stimulate IMGE-5 cell migration; also recorded: inactive |  |  |  |  |  |  |  |  | 
 |  |  |  | no effect | [Bi+3] [bismuth ions] |  |  | 97.9 ± 2.5 % Control | completely blocked | no effect | significantly reduced this Ggly-induced stimulation | no effect | significantly decreased the proliferation induced by Ggly | no effect |  | 
 |  |  |  |  | Ggly: glycine-extended gastrin17, 18 amino acid non-amidated gastrin, SEQ ID NO:4, residues 55-72 of progastrin (XGPWLEEEEEAYGWMDFG; (1)..(1) pyroglutamate; listed as Homo sapiens) | 2 fold | considerably reduced wound size | 135.7 ± 3.6 % Control |  |  |  |  |  |  | 225% | 120%
